The nature of the data set: Solid-form stability under stressed conditions (temperature/relative humidity). It is filed as physicochemical. Particulars: for at least four weeks. As for the experimental part: Form Z of acetic acid solvated hydrate of ponatinib hydrochloride is stable under stressed conditions of about 40° C./75% RH and about 25° C./97% RH for at least four weeks.

Turning to `Cc1ccc(C(=O)Nc2ccc(CN3CCN(C)CC3)c(C(F)(F)F)c2)cc1C#Cc1cnc2cccnn12` [3-(imidazo[1,2-b]pyridazin-3-ylethynyl)-4-methyl-N-{4-[(4-methylpiperazin-1-yl)methyl]-3-(trifluoromethyl)phenyl}benzamide], the “stability under stressed conditions” value by setting is: (about 25° C./97% RH) “stable”; (about 40° C./75% RH) “stable”.

The values are drawn from patent US12030886B2, “Form of ponatinib” (MACFARLAN SMITH LIMITED, priority 2018, dated 2024).
